# In US20050208058A1, “Compositions and methods for modulating cell division” (priority 2003, published 2005):
# d = 2'-deoxy (DNA)
# What was measured:
# Type in all cases: cell-based, human
# [1] = tested on: RPE cells; assay: FACS of cells treated in tandem with two siRNAs (p53 dependence); settings: tandem treatment silamin then siGCP2; FIG. 6A
# Procedure: (§1) For flow cytometry (i.e., fluorescence-activated cell sorter or FACS) experiments, siRNAs were delivered to cells as described above, and were incubated for 50-70 hours. To synchronize cells, nocodazole was added to the cells to a concentration of 5 μg/mL for 12 hours. Cells were stained with propidium iodide and analyzed by flow cytometry (FACSCAN; Becton Dickinson) using FLOJO® software (Tree Star, Inc., Ashland, Oreg.).
# A number of experiments were conducted to determine if p53 is required for the cell cycle arrest phenotype described herein. FACS analysis of tandem siRNA-treated cells was performed as described in Example 2. BrDU and DAPI imaging was performed as described in Example 2. Intracellular p53 was visualized using anti-p53 antibody that is specific for activated p53 (i.e., p53 phosphorylated at Serine 33) (“α-Pser33-p53” provided by Yoichi Taya and described in Kishis et al., J. Biol. Chem., 276:39115-3922, 2001)
# In FIG. 6A each line tracing represents FACS data from cells treated in tandem with the siRNAs directed to the gene products indicated above the line. Cells were first treated with siRNA directed to the gene product to the left of the slash. Up to 24 hours later, siRNA directed to the gene product to the right of the slash was added. […] 12 hours before collecting the cells, nocodazole was added to the cells analyzed in the bottom three line tracings. […]
# [2] = tested on: RPE cells; assay: BrDU incorporation after siRNA treatment and nocodazole synchronization; settings: relative to control cells (siRNA to lamin), after nocodazole release; FIG. 2A
# Procedure: To further study the effects of silencing centrosomal genes, the following cell cycle experiments were performed using RPE cells. In immunofluorescence experiments, cells were delivered by OLIGOFECTAMINE in a media solution containing between 1-100 nanomolar concentration of siRNAs. After 4 hours of incubation with lipofectamine, cells were washed, and cell cycle progression was assayed by (i) treating cells with 5-Bromo-2′-deoxyuridine (BrDU from Sigma, St Louis, Mo.) for 24 hours and staining for BrDU or (ii) staining cells with antibody to Ki-67 (BD Biosciences) according to manufacturer's instructions. BrDU treatment and staining were performed as follows: after 50-70 hours incubation with siRNA, BrDU was added to cells at a final concentration of 5 μg/ml. Cells were fixed in −20° C. methanol and then treated with 2N HCL at 22° C. for 30 minutes, incubated with 1:500 mouse anti-BrdU antibody (Becton Dickinson, Palo Alto, Calif.), and labeled with 1:1,000 goat FITC-mouse antibody (Molecular Probes, Inc.). Cells were also treated with 4′,6-diamidino-2-phenylindole (DAPI) (Molecular Probes) according to the manufacturer's instructions. Cells were prepared, imaged, and the resulting images were deconvolved as described in Example 1.
# Upon release from nocodazole treatment, proliferating cells typically resume cell cycle progression. Chromosomal DNA in the cells was imaged using DAPI (faint ghost-like staining) and/or BrDU (brighter staining). Although DAPI can be used to visualize DNA at any stage of the cell cycle, BrDU is only incorporated into newly synthesized DNA only during S-phase. Thus, BrDU incorporation can be used as a marker of cells that progress through at least one S-phase of the cell cycle. Control cells in this experiment were treated with siRNA to lamin.
# [3] = tested on: RPE cells; assay: Flow cytometry (FACS) of nocodazole-induced shift from G1 to G2/M peak after siRNA treatment
# Procedure: as §1
# In another approach to evaluating the effect requirement for centrosomal gene products, fluorescence assisted cell sorting (flow cytometry or FACS) analysis was performed as described in Gromley et al., J. Cell Biol., 161:535-545 (2003). Briefly, cells were treated with indicated siRNA for at least 50-70 hours, unless otherwise indicated. Cells were synchronized by adding nocodazole to 5 μg/mL for 12 hours prior to cell collection. Cells were collected, fixed in methanol, stained with propidium iodide, and analyzed by flow cytometry (FACSCAN®;Becton Dickinson) using FLOJO® software (Tree Star, Inc.).
# FIG. 3A is a graph showing the effects of depleting the indicated centrosomal gene products by siRNA treatment. The left side of the graph depicts the FACS results for treated cells before the addition of nocodazole (-noc). The major fluorescence peak in (-noc) cells is the G1 peak, (i.e., lower DNA fluorescence). The right side of the graph depicts the results for cells after nocodazole treatment (+noc). […] This may be due to inefficient silencing caused by the siRNAs used.
# The ability of a number of centrosomal genes to inhibit cell cycling of RPE1 cells was tested by treating cells with siRNAs and performing FACS analysis as described in Example 2.
sequence,measurement,setting,value
"UCUCGUACUCCAGAAGACU (siRNA; RNA, 3' dTdT, backbone not given here) [siGCP2, siRNA directed to GCP2]",nocodazole shift from G1 peak to G2/M peak,[1],blocked
same,incorporation of BrDU into chromosomal material,[2],clearly inhibited incorporation of BrDU
same,block of nocodazole-induced shift to G2/M peak at 72 hours,"[3]; 72 hours of siRNA treatment, FIG. 3B",effectively blocked the nocodazole-induced shift
same,inhibition of nocodazole-induced shift from G1 peak to G2/M peak,"[3]; siRNA 50-70 hours, nocodazole 5 μg/mL 12 hours, FIG. 3A, FIG. 8",prevented nocodazole-induced shift
same,duration of block of nocodazole shift,"[3]; time course, FIG. 3B",at least 244 hours
same,time of siRNA treatment before prevention of the nocodazole shift occurs,"[3]; time course, FIG. 3B",> 48 h
